Key:
[1] = Fluorescence quenching of NBD-labeled cholate oligomers by hydrophilic quencher 11; format: binding
Description: Fluorescence Quenching of the NBD-Labeled Cholate Oligomers 1-4: Typical procedures for the quenching experiment are as follows. Stock solutions (1.0×10^−3 M) of 1-4 in anhydrous THF were prepared. An aliquot (25.0 μL) of the stock solution was diluted by 2.00 mL of carbon tetrachloride with 5 vol. % DMSO in a quartz cuvet. Aliquots (5.0 μL, 0.8 M) of the quencher (11 or 12) in THF were added with a Hamilton Gastight syringe. After each addition, the sample was vortexed for 1 minute before the fluorescence spectrum was recorded. The excitation wavelength was set at 336 nm and the maximum emission intensity at 527 nm was monitored.

[2] = Solvent denaturation of donor-acceptor labeled cholate oligomers followed by FRET (two-state model); format: physicochemical; conditions: for m (in parentheses) / ΔG0 (in parentheses): linear fitting of unfolding free energies (FIG. 12); for m / ΔG0: nonlinear least-squares fitting to two-state model (FIG. 11)
Excerpt: According to the two-state model, at any given concentration of the denaturant (i.e., DMSO), only the folded and unfolded conformations are present and their fractions are represented by fF and fU. Fraction of the unfolded conformation can be calculated by: fU=(IF−I)/(IF−IU) (2) in which I is the observed emission intensity of the acceptor in a given foldamer, IF is the emission intensity of the acceptor in the fully folded conformer, and IU is the emission intensity of the acceptor in the fully unfolded conformer. The equilibrium constant (Keq) and the free energy (ΔG) for the folding reaction can be calculated using ΔG=RT ln Keq=−RT ln(fU/fF)=−RT ln [fU/(1−fU)] (3)
In order to calculate fractions of the unfolded conformations, both IF and IU must be known for different foldamers. The emission intensity of the acceptor in the 1:1 mixture of the monomer A 8 (MA) and monomer D 9(MD) should be good approximations for IU since the emission intensity of the longer foldamers (e.g., pentamer-DA 5 (PDA)) does converge to that of the (MA+MD) mixture upon unfolding. The value of IF, on the other hand, cannot be obtained directly because none of the three foldamers seem to be fully folded under the initial condition of 1% DMSO.
In general, to obtain the values of IF for PDA, hexamer-DA 6 (HXDA), and heptamer-DA 7 (HPDA), it is useful to first make an assumption for fU (e.g., fU=0.1 for the HPDA) in 1% DMSO and use it to calculate the corresponding value of IF, which is designated IF(1). Using IF(1), the first set of fU(1) can be calculated at different DMSO percentages according to equation 2. In the two-state model, the free energies are linearly related to the concentration of denaturant (i.e., DMSO): ΔG=ΔG0−m[DMSO] (4) in which ΔG0 is the free energy for the folding reaction in the absence of denaturant and m measures how sensitive the folding equilibrium is toward DMSO percentage. From equations 2, 3, and 4, the following equation 5 can be obtained, where equation 5 describes the relationship between fU and DMSO percentage: fU=1/{1+1/exp[−(ΔG0−m[DMSO])/RT]} (5)
As a result, the initial values of ΔG0 and m (which are designated as ΔG0(1) and m1) can be obtained by nonlinear least-squares fitting to the first set of fU(1). The resulting ΔG0(1) and m1 are used to calculate the refined value of IF(2) using equations 5 and 2. This process is repeated as long as there is a fairly large difference between the entering IF(n) value and the resulting IF(n+1) value. In general, fitting of the data improves over several rounds of refinement. The refinement is stopped in the end when the values of IF(n) and IF(n+1) are within 1% of each other and are taken as the final value of IF.
In such data processing, it is assumed that IF was independent of DMSO percentage. Such an assumption is expected to underestimate the stability of the cholate foldamers. This is because the emission of MA is shown to be slightly quenched by DMSO—the emission intensity decreases by about 20% over 1-5% DMSO.
FRET Study of the Donor-Acceptor Labeled Cholate Oligomers 5-9 Stock solutions (2.0×10^−4M) of 5-9 in anhydrous THF were prepared. An aliquot (20.0 μL) of the stock solution was diluted by (a) 2.00 mL of ethyl acetate/hexane (v/v=1.05/2) with 1 vol. % DMSO and (b) […] 2.00 mL of ethyl acetate/hexane (v/v=1/1) with 1 vol. % DMSO in a quartz cuvet. Ten aliquots of DMSO (10.0 μL each) were added to the sample. After each addition, the sample was vortexed for 1 minute before the fluorescence spectrum was recorded. The excitation wavelength was set at 287 nm.

[3] = DMSO in ethyl acetate/hexane (1/1)
[4] = DMSO in ethyl acetate/hexane (1/2)

Row | SMILES | reduction of fluorescence by quencher 11 ([1]; 5.6 mM of 11 in 2% methanol/CCl4) | reduction of fluorescence by quencher 11 ([1]; 5.6 mM of 11 in 5% DMSO/CCl4) | m (in parentheses) [2, 3] | ΔG0 (in parentheses) [2, 3] | m [2, 3] | ΔG0 [2, 3] | m (in parentheses) [2, 4] | ΔG0 (in parentheses) [2, 4] | m [2, 4] | ΔG0 [2, 4]
1 | COC(=O)CCC(C)C1CCC2C3C(O)CC4CC(NC(=O)CCC(C)C5CCC6C7C(O)CC8CC(NC(=O)CCC(C)C9CCC%10C%11C(O)CC%12CC(NC(=O)CCC(C)C%13CCC%14C%15C(O)CC%16CC(NC(=O)CCC(C)C%17CCC%18C%19C(O)CC%20CC(NC(=O)CCC(C)C%21CCC%22C%23C(O)CC%24CC(NC(=O)CCC(C)C%25CCC%26C%27C(O)CC%28CC(Nc%29ccc([N+](=O)[O-])c%30nonc%29%30)CCC%28(C)C%27CC(O)C%25%26C)CCC%24(C)C%23CC(O)C%21%22C)CCC%20(C)C%19CC(O)C%17%18C)CCC%16(C)C%15CC(O)C%13%14C)CCC%12(C)C%11CC(O)C9%10C)CCC8(C)C7CC(O)C56C)CCC4(C)C3CC(O)C12C (stereo not shown) [Compound 4] | 60 fold | < 3 fold | – | – | – | – | – | – | – | –
2 | CC(CCC(=O)Nc1cccc2ccccc12)C1CCC2C3C(O)CC4CC(NC(=O)CCC(C)C5CCC6C7C(O)CC8CC(NC(=O)CCC(C)C9CCC%10C%11C(O)CC%12CC(NC(=O)CCC(C)C%13CCC%14C%15C(O)CC%16CC(NC(=O)CCC(C)C%17CCC%18C%19C(O)CC%20CC(NC(=O)CCC(C)C%21CCC%22C%23C(O)CC%24CC(NS(=O)(=O)c%25cccc%26c(N(C)C)cccc%25%26)CCC%24(C)C%23CC(O)C%21%22C)CCC%20(C)C%19CC(O)C%17%18C)CCC%16(C)C%15CC(O)C%13%14C)CCC%12(C)C%11CC(O)C9%10C)CCC8(C)C7CC(O)C56C)CCC4(C)C3CC(O)C12C (stereo not shown) [Compound 6] | – | – | 0.89 kcal/mol | 1.9 kcal/mol | 0.81 ± 0.06 kcal/mol | 1.8 ± 0.1 kcal/mol | 0.52 kcal/mol | 1.8 kcal/mol | 0.50 ± 0.02 kcal/mol | 1.7 ± 0.1 kcal/mol
